Earlier results, collected in US20050287230A1, “Method of producing ginsenoside 20 (R)-Rh2 and composition of matter thereof” (priority 2004, published 2005).
Like-named read-outs stand apart in the source and are kept apart here.

How the values were obtained:
[1] = Stomach irrigation with 2 g/kg
[2] = subcutaneous injection 10 mg/kg
LAK cells = settings: tumor patient
HRA cells = settings: dosage-dependent
[3] = tested on: Morris liver cancer, human cervical cancer, B16 malignant melanoma and Hela cells
rhTNF-a = rhTNF-a (Homo sapiens, UniProt P01375); settings: external experiment
rhTNF-a, sequence (P01375 77-233 limits assumed): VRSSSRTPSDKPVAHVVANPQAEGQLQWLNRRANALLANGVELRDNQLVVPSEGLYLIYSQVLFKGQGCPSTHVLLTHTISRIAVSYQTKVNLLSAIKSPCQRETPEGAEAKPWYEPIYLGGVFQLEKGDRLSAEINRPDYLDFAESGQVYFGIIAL

sarcoma 180 = settings: 5 mg/kg dosage
[4] = mouse, orally taken

CC(C)=CC[C@@H](O)C1=CC(=O)c2c(O)ccc(O)c2C1=O [Shikonin]
solubility in water: insoluble
death [1]: no dead mouse

C[C@H]1[C@H](C)CC[C@]2(C(=O)O)CC[C@]3(C)C(=CC[C@@H]4[C@@]5(C)CC[C@H](O)C(C)(C)[C@@H]5CC[C@]43C)[C@H]12 [Ursolic acid]
solubility in water: insoluble
serum gorge invert ammonia enzyme [2]: can reduce
reversal of the inhibition function of MΦ (J744 macrophage; 50 μg/ml): partially deteriorates
reversal of the inhibition function of MΦ (J744 macrophage; 100 μg/ml): totally deteriorate

CC(C)=CCC[C@@](C)(O)[C@H]1CC[C@]2(C)[C@@H]1[C@H](O)C[C@@H]1[C@@]3(C)CC[C@H](O)C(C)(C)[C@@H]3[C@@H](O[C@@H]3O[C@H](CO)[C@@H](O)[C@H](O)[C@H]3O)C[C@]12C [ginsenoside 20(R)-Rh1]
inhibition of HL60 tumor strain (HL60): inhibit the human promyelcytic leukemia HL60 tumor strain significantly

CC(C)=CCC[C@](C)(O[C@@H]1O[C@H](CO)[C@@H](O)[C@H](O)[C@H]1O)[C@H]1CC[C@]2(C)[C@@H]1[C@H](O)C[C@@H]1[C@@]3(C)CC[C@H](O)C(C)(C)[C@@H]3[C@@H](O[C@@H]3O[C@H](CO)[C@@H](O)[C@H](O)[C@H]3O[C@@H]3O[C@@H](C)[C@H](O)[C@@H](O)[C@H]3O)C[C@]12C [ginsenoside Re]
level above which effect upon LAK activity appears (LAK cells): > 5 µg/mL

CC(C)=CCC[C@](C)(O)[C@H]1CC[C@]2(C)[C@@H]1[C@H](O)C[C@@H]1[C@@]3(C)CC[C@H](O[C@@H]4O[C@H](CO)[C@@H](O)[C@H](O)[C@H]4O)C(C)(C)[C@@H]3CC[C@]12C [ginsenoside Rh2, ginseng dialcohol-3-O-β-D-glucopyranoside]
effective range for inhibition of proliferation (HRA cells): 10˜100 μmol/L
inhibition of HL60 tumor strain (HL60): inhibit the human promyelcytic leukemia HL60 tumor strain significantly
inhibition of HL60 tumor strain (HL60; listed as ginsenoside-Rh2): significant effect
inhibition effect on the proliferation ([3]; 2-10 μg/ml in culture solution): different degrees of inhibition effect
inhibition on the proliferation function ([3]; external experiment): outstanding inhibition

CC(C)=CCC[C@](C)(O[C@@H]1O[C@H](CO[C@@H]2OC[C@H](O[C@@H]3OC[C@@H](O)[C@H](O)[C@H]3O)[C@H](O)[C@H]2O)[C@@H](O)[C@H](O)[C@H]1O)[C@H]1CC[C@]2(C)[C@@H]1[C@H](O)C[C@@H]1[C@@]3(C)CC[C@H](O[C@@H]4O[C@H](CO)[C@@H](O)[C@H](O)[C@H]4O[C@@H]4O[C@H](CO)[C@@H](O)[C@H](O)[C@H]4O)C(C)(C)[C@@H]3CC[C@]12C [ginsenoside-Ra1]
increase of rhTNF-a activity (rhTNF-a): 134 times

CC(C)=CCC[C@](C)(O)[C@H]1CC[C@]2(C)[C@@H]1[C@H](O)C[C@@H]1[C@@]3(C)CC[C@H](O)C(C)(C)[C@@H]3[C@@H](O[C@@H]3O[C@H](CO)[C@@H](O)[C@H](O)[C@H]3O)C[C@]12C [ginsenoside-Rh1]
concentration that completely inhibits the proliferation (B16 melanoma cells): above 8.0 μg/ml

Lentinan
solubility in water: almost indissoluble
inhibition rate of anti-tumor (sarcoma 180): 97.5%
acute toxicity LD50 [4]: > 1250 mg/kg
